The test system of series [1] is CD34+ cells. Kind of series: Antagonist pretreatment and LPA-induced CD34+ cell survival in hypoxia (Annexin V/PI FACS). The format is cell-based, human. The settings on record: LPA 100 μM alone (+LPA, no antagonist); hypoxia 24 h. The procedure: FIG. 5—LPA induces CD34+ cell survival mainly through peroxisome proliferator-activator receptor (PPAR). Cells were cultured in serum free medium with LPA. Cells were pretreated with Rho kinase inhibitor (Y-2762, 50 μM), mitogen-activated protein kinase (MAPK) inhibitor (PD98059, 60 μM), LPA1- and LPA3-specific inhibitor (Ki16425, 10 μM), or peroxisome proliferator-activator receptor g (PPARg) inhibitor (GW9662, 50 μM) for 1 hour before hypoxia and cell medium containing LPA (100 μM) for 24 h. Cells without any pretreatment and cultured in serum free medium with or without LPA, in hypoxia for 24 h, were used as positive and negative controls, respectively. Results are average±SEM (n=3-6). * Denote statistical significance: *P<0.05, **P<0.01, […].
The biological roles of LPA are diverse and include developmental, physiological, and pathophysiological effects (Lin, M. E., D. R. Herr, and J. Chun, Lysophosphatidic acid (LPA) receptors: signaling properties and disease relevance. Prostaglandins Other Lipid Mediat, 2010. 91(3-4): p. 130-8). To date up to five LPA receptors (LPARs) have been identified: LPA1-LPA5 (Choi, J. W., et al., LPA receptors: subtypes and biological actions. Annu Rev Pharmacol Toxicol, 2010. 50: p. 157-86). The receptors are G protein-coupled receptors (GPCRs) and their presence can be found in multiple tissues. LPA1, LPA2 and LPA3 are widely expressed in most tissues (Ishii, I., et al., Functional comparisons of the lysophosphatidic acid receptors, LP(A1)/VZG-1/EDG-2, LP(A2)/EDG-4, and LP(A3)/EDG-7 in neuronal cell lines using a retrovirus expression system. Mol Pharmacol, 2000. 58(5): p. 895-902). LP4 is expressed in specific organs, such as the pancreas, ovaries and thymus (Lee, C. W., et al., LPA(4)/GPR23 is a lysophosphatidic acid (LPA) receptor utilizing G(s)-, G(q)/G(i)-mediated calcium signaling and G(12/13)-mediated Rho activation. J Biol Chem, 2007. 282(7): p. 4310-7). LPA5 is expressed at low levels in multiple tissues (Lee, C. W., et al., GPR92 as a new G12/13- and Gq-coupled lysophosphatidic acid receptor that increases cAMP, LPA5. J Biol Chem, 2006. 281(33): p. 23589-97). To identify the receptor that is mediating the pro-survival effect of LPA (100 μM), was used Ki16425 (10 μM), an LPA1- and LPA3-specific antagonist, and GW9662 (50 μM), an antagonist of peroxisome proliferator-activator receptor γ (PPAR γ). Studies indicate that LPA has a high affinity by this last receptor (McIntyre, T. M., et al., Identification of an intracellular receptor for lysophosphatidic acid (LPA): LPA is a transcellular PPARgamma agonist. Proc Natl Acad Sci USA, 2003. 100(1): p. 131-6; Gustin, C., M. Van Steenbrugge, and M. Raes, LPA modulates monocyte migration directly and via LPA-stimulated endothelial cells. Am J Physiol Cell Physiol, 2008. 295(4): p. C905-14). This approach was complemented, by inhibiting downstream targets of the receptors including Rho kinase and mitogen-activated protein kinase (MAPK) using Y-2762 (50 μM) and PD98059 (60 μM) antagonists, respectively. It is known that all LPARs couple with and activate G proteins, which in turn activate MAPK (LPA1, LPA2, LPA3 and LPA4) and Rho kinase (LPA1, LPA2, LPA4 and LPA5) (Choi, J. W., et al., LPA receptors: subtypes and biological actions. Annu Rev Pharmacol Toxicol, 2010. 50: p. 157-86). Cells were treated for 1 h in X-Vivo medium containing a specific antagonist followed by culture under hypoxia conditions for 24 h. Cell survival was assessed by FACS analysis after Annexin V/PI staining. […] The number of viable cells decreased from 77% (+LPA) to 67% (P<0.01, n=19). […] Because the two signaling pathways are downstream targets of different LPARs (see above), this might indicate different contributions of LPARs in the survival of CD34+ cells.

The subject of series [2] is CD34+ cells. The series is described as follows: Cytokine secretion by CD34+ cells (Bio-Plex cytokine bead array). The series is classed as cell-based, human. The settings on record: LPA 100 μM; hypoxia, serum free, 24 h. On the procedure:
In an embodiment, cell culture supernatants were evaluated for the presence and concentrations of cytokines using a Bio-Plex Pro Human Cytokine 17-Plex Panel Assay (preferably, Bio-Rad, Hercules, Calif., USA), according to manufacturer's instructions, in a Bio-Plex 200 System (Bio-Rad, www.bio-rad.com). The human Group I 17-Plex Panel consisted of the following analytes: interleukin-1β (IL-1β), IL-2, IL-4, IL-5, IL-6, IL-7, IL-8; IL-10, IL-12(p70), IL-13, IL-17, granulocyte colony-stimulating factor (G-CSF), granulocyte/macrophage colony-stimulating factor (GM-CSF), interferon-γ (IFN-γ), monocyte chemotactic protein (monocyte chemotactic activating factor [MCP-1 (MCAF)], macrophage inflammatory protein-β (MIP-1 β) and tumor necrosis factor-α (TNF-α). Supernatant media samples were collected, centrifuged to remove precipitates and frozen. A standard range of 0.2 to 3,200 pg/mL was used. Samples and controls were run in triplicate, standards and blanks in duplicate.
To determine the effect of LPA in the release of signaling cytokines and growth factors by CD34+ cells, was used a cytokine bead array. The cells were incubated in serum free medium X-Vivo for 24 h under normoxia or hypoxia conditions, either in the presence or absence of LPA (100 μM). Untreated CD34+ cells in normoxia express high levels (>100 pg/mL) of IL-8 and MIP-1b, medium levels (between 100 and 1 pg/mL) of IL-6, TNF-α and GM-CSF, and low levels (<1 pg/mL) of IL-1β, IL-4 and IL-17 (FIG. 5C).

Regarding lysophosphatidic acid [LPA], in series [1], the “number of viable cells” value is recorded as about 77%. Moreover, in series [2], the “secretion of GM-CSF” value is recorded as about 1 pg/mL, the “secretion of IL-1” value is about 2 pg/mL, the “secretion of IL-4” value is about 2.7 pg/mL and the “secretion of IL-6” value is about 2 pg/mL. For the same substance, in series [2], the “secretion of IL-8” value was ~17,000 pg/mL and the “secretion of TNF-α” value is on record as about 15 pg/mL.

(Values after US9868935B2, “Composition and method of stem cells for preservation of cardiac tissue” (CRIOESTAMINAL, SAÚDE E TECNOLOGIA, SA., priority 2012, dated 2018).)
